Tested on: MDBKF5D2 cell monolayers
Assay: Toxicity testing assay (MTS/PMS, OD 490 nm)
Format: cell-based
Method: (§1) Toxicity Testing Assay. 200 μl of medium containing drug at the above-mentioned concentrations and positive control preparations [paromomycin/DMSO (2 mg/ml/0.2%)] were introduced into two wells of a 96 well plate containing confluent MDBKF5D2 cell monolayers (ATCC accession number CCL-22) infected with intact C. parvum GCH1 oocysts (5.0×10^4 per well) (43) and two wells without monolayers. The drug was incubated on the monolayers at 37° C. and 8% CO2. At 48 hours, MTS (Owen's solution) and PMS were added to each well at concentrations of 333 μg/ml and 25 μM respectively. The plate was returned to the incubator in the dark to develop for two hours. At two hours, 100 μl of each supernatant was transferred to a new microtiter plate and the optical density (OD) was read in an ELISA plate reader at 490 nm.
(§2) Percent toxicity was calculated by subtracting the mean drug OD from the medium OD, divided by the medium OD, all of which was then multiplied by 100, as shown in the equation below. Cytotoxicity scores were assigned as follows: 0-5% toxicity=0, 6-25% toxicity=1, 26-50% toxicity=2, 51-75% toxicity=3, and 76-100% toxicity=4. As a standard, cytotoxicity scores of 0 or, 1 were considered acceptable levels of toxicity. Toxicity scores of 2, 3, or 4 were considered as high levels of toxicity to the cell monolayer. [formula]
as §1, with “containing drugs” for “containing drug”, “monolayers” for “monolayers (ATCC accession number CCL-22)”, “well)” for “well) (43)”, “and 25μM” for “and 25 μM”
as §2, with “or” for “or,”
as §1, with “monolayers” for “monolayers (ATCC accession number CCL-22)”, “well)” for “well) (43)”, “25μM” for “25 μM”

[1] = Table 2, 2 mg/ml, listed as PRM/DMSO
[2] = Table 4 Washed at 4 hours, 250 μg/ml
[3] = Table 4 Washed at 4 hours, 500 μg/ml
[4] = Table 4 Washed at 4 hours, 1000 μg/ml
[5] = Table 4 Washed at 4 hours, 2000 μg/ml
[6] = Table 5, 2000 μg/ml, drug added at 0 hrs
[7] = Table 5, 2000 μg/ml, drug added at 2 hrs
[8] = Table 5, 2000 μg/ml, drug added at 4 hrs
[9] = Table 5, 2000 μg/ml, drug added at 8 hrs
[10] = Table 5, 2000 μg/ml, drug added at 24 hrs
[11] = Table 4 Washed at 4 hours, 100 μg/ml
[12] = Table 4 Washed at 4 hours, 200 μg/ml
[13] = Table 4 Washed at 4 hours, 400 μg/ml
[14] = Table 4 Washed at 4 hours, 800 μg/ml
[15] = Table 5, 800 μg/ml, drug added at 0 hrs
[16] = Table 5, 800 μg/ml, drug added at 2 hrs
[17] = Table 5, 800 μg/ml, drug added at 4 hrs
[18] = Table 5, 800 μg/ml, drug added at 8 hrs
[19] = Table 5, 800 μg/ml, drug added at 24 hrs

Compound: NC[C@@H]1O[C@H](O[C@H]2[C@@H](O)[C@H](O[C@@H]3[C@@H](O)[C@H](N)C[C@H](N)[C@H]3O[C@H]3O[C@H](CO)[C@@H](O)[C@H](O)[C@H]3N)O[C@@H]2CO)[C@H](N)[C@@H](O)[C@@H]1O [PRM, paromomycin]
- Tox. O.D. (Table 1, 2000 μg/ml): .868
- Toxicity Percent (Table 1, 2000 μg/ml): 21.09%
- Toxicity Score (Table 1, 2000 μg/ml): 1 (6-25% toxicity=1)
- Tox. O.D. (Table 2, 2 mg/ml): .954
- Toxicity Percent (Table 2, 2 mg/ml): -4.38%
- Toxicity Score (Table 2, 2 mg/ml): 0 (0-5% toxicity=0)
- Tox. O.D. [1]: .963
- Toxicity Percent [1]: 4.37%
- Tox. O.D. (Table 3 Unwashed, 250 μg/ml): 1.121
- Toxicity Percent (Table 3 Unwashed, 250 μg/ml): -7.53%
- Toxicity Score (Table 3 Unwashed, 250 μg/ml): 0 (0-5% toxicity=0)
- Tox. O.D. (Table 3 Unwashed, 500 μg/ml): 1.019
- Toxicity Percent (Table 3 Unwashed, 500 μg/ml): 2.30%
- Toxicity Score (Table 3 Unwashed, 500 μg/ml): 0 (0-5% toxicity=0)
- Tox. O.D. (Table 3 Unwashed, 1000 μg/ml): .963
- Toxicity Percent (Table 3 Unwashed, 1000 μg/ml): 7.67%
- Toxicity Score (Table 3 Unwashed, 1000 μg/ml): 1 (6-25% toxicity=1)
- Tox. O.D. (Table 3 Unwashed, 2000 μg/ml): 1.061
- Toxicity Percent (Table 3 Unwashed, 2000 μg/ml): -1.73%
- Toxicity Score (Table 3 Unwashed, 2000 μg/ml): 0 (0-5% toxicity=0)
- Tox. O.D. [2]: 1.121
- Toxicity Percent [2]: -7.68%
- Toxicity Score [2]: 0 (0-5% toxicity=0)
- Tox. O.D. [3]: 1.019
- Toxicity Percent [3]: 2.16%
- Toxicity Score [3]: 0 (0-5% toxicity=0)
- Tox. O.D. [4]: .963
- Toxicity Percent [4]: 7.54%
- Toxicity Score [4]: 1 (6-25% toxicity=1)
- Tox. O.D. [5]: 1.061
- Toxicity Percent [5]: -1.87%
- Toxicity Score [5]: 0 (0-5% toxicity=0)
- Tox. O.D. [6]: .962
- Toxicity Percent [6]: 16.17%
- Toxicity Score [6]: 1 (6-25% toxicity=1)
- Tox. O.D. [7]: .878
- Toxicity Percent [7]: 23.49%
- Toxicity Score [7]: 1 (6-25% toxicity=1)
- Tox. O.D. [8]: .923
- Toxicity Percent [8]: 19.56%
- Toxicity Score [8]: 1 (6-25% toxicity=1)
- Tox. O.D. [9]: .871
- Toxicity Percent [9]: 24.05%
- Toxicity Score [9]: 1 (6-25% toxicity=1)
- Tox. O.D. [10]: .850
- Toxicity Percent [10]: 25.93%
- Toxicity Score [10]: 1 (6-25% toxicity=1)
- Tox. O.D. (Table 6, 2 mg/ml): 1.273
- Toxicity Percent (Table 6, 2 mg/ml): 22.74%
- Toxicity Score (Table 6, 2 mg/ml): 1 (6-25% toxicity=1)

Compound: C=C(NC(=O)C(=C)NC(=O)c1csc(C2=N[C@@H]3c4csc(n4)[C@H]4NC(=O)c5csc(n5)[C@H]([C@](C)(O)[C@@H](C)O)NC(=O)[C@H]5CSC(=N5)/C(=C/C)NC(=O)[C@H]([C@@H](C)O)NC(=O)c5csc(n5)[C@]3(CC2)NC(=O)[C@H](C)NC(=O)C(=C)NC(=O)[C@H](C)NC(=O)[C@H]([C@@H](C)CC)N[C@@H]2C=Cc3c([C@H](C)O)cc(nc3[C@H]2O)C(=O)O[C@@H]4C)n1)C(N)=O [Thiostrepton, thiostrepton]
- Tox. O.D. (Table 1, 1 μg/ml): .941
- Toxicity Percent (Table 1, 1 μg/ml): 14.50%
- Toxicity Score (Table 1, 1 μg/ml): 1 (6-25% toxicity=1)
- Tox. O.D. (Table 1, 10 μg/ml): .991
- Toxicity Percent (Table 1, 10 μg/ml): 9.95%
- Toxicity Score (Table 1, 10 μg/ml): 1 (6-25% toxicity=1)
- Tox. O.D. (Table 1, 100 μg/ml): .994
- Toxicity Percent (Table 1, 100 μg/ml): 9.64%
- Toxicity Score (Table 1, 100 μg/ml): 1 (6-25% toxicity=1)
- Tox. O.D. (Table 1, .1 μg/ml): .912
- Toxicity Percent (Table 1, .1 μg/ml): 17.14%
- Toxicity Score (Table 1, .1 μg/ml): 1 (6-25% toxicity=1)
- Tox. O.D. (Table 2, 100 μg/ml): .915
- Toxicity Percent (Table 2, 100 μg/ml): 9.14%
- Toxicity Score (Table 2, 100 μg/ml): 1 (6-25% toxicity=1)
- Tox. O.D. (Table 2, 200 μg/ml): .820
- Toxicity Percent (Table 2, 200 μg/ml): 18.62%
- Toxicity Score (Table 2, 200 μg/ml): 1 (6-25% toxicity=1)
- Tox. O.D. (Table 2, 400 μg/ml): .799
- Toxicity Percent (Table 2, 400 μg/ml): 20.71%
- Toxicity Score (Table 2, 400 μg/ml): 1 (6-25% toxicity=1)
- Tox. O.D. (Table 2, 800 μg/ml): .676
- Toxicity Percent (Table 2, 800 μg/ml): 32.87%
- Toxicity Score (Table 2, 800 μg/ml): 2 (26-50% toxicity=2)
- Tox. O.D. (Table 3 Unwashed, 100 μg/ml): .969
- Toxicity Percent (Table 3 Unwashed, 100 μg/ml): 7.10%
- Toxicity Score (Table 3 Unwashed, 100 μg/ml): 1 (6-25% toxicity=1)
- Tox. O.D. (Table 3 Unwashed, 200 μg/ml): .827
- Toxicity Percent (Table 3 Unwashed, 200 μg/ml): 20.67%
- Toxicity Score (Table 3 Unwashed, 200 μg/ml): 1 (6-25% toxicity=1)
- Tox. O.D. (Table 3 Unwashed, 400 μg/ml): .788
- Toxicity Percent (Table 3 Unwashed, 400 μg/ml): 24.41%
- Toxicity Score (Table 3 Unwashed, 400 μg/ml): 1 (6-25% toxicity=1)
- Tox. O.D. (Table 3 Unwashed, 800 μg/ml): .739
- Toxicity Percent (Table 3 Unwashed, 800 μg/ml): 29.11%
- Toxicity Score (Table 3 Unwashed, 800 μg/ml): 2 (26-50% toxicity=2)
- Tox. O.D. [11]: .969
- Toxicity Percent [11]: 6.96%
- Toxicity Score [11]: 1 (6-25% toxicity=1)
- Tox. O.D. [12]: .827
- Toxicity Percent [12]: 20.56%
- Toxicity Score [12]: 1 (6-25% toxicity=1)
- Tox. O.D. [13]: .788
- Toxicity Percent [13]: 24.30%
- Toxicity Score [13]: 1 (6-25% toxicity=1)
- Tox. O.D. [14]: .739
- Toxicity Percent [14]: 29.01%
- Toxicity Score [14]: 2 (26-50% toxicity=2)
- Tox. O.D. [15]: .783
- Toxicity Percent [15]: 22.91%
- Toxicity Score [15]: 1 (6-25% toxicity=1)
- Tox. O.D. [16]: .577
- Toxicity Percent [16]: 43.15%
- Toxicity Score [16]: 2 (26-50% toxicity=2)
- Tox. O.D. [17]: .638
- Toxicity Percent [17]: 37.14%
- Toxicity Score [17]: 2 (26-50% toxicity=2)
- Tox. O.D. [18]: .786
- Toxicity Percent [18]: 22.56%
- Toxicity Score [18]: 1 (6-25% toxicity=1)
- Tox. O.D. [19]: .749
- Toxicity Percent [19]: 26.26%
- Toxicity Score [19]: 2 (26-50% toxicity=2)
- Tox. O.D. (Table 6, 100 μg/ml): 1.348
- Toxicity Percent (Table 6, 100 μg/ml): 18.15%
- Toxicity Score (Table 6, 100 μg/ml): 1 (6-25% toxicity=1)
- Tox. O.D. (Table 6, 200 μg/ml): 1.324
- Toxicity Percent (Table 6, 200 μg/ml): 19.61%
- Toxicity Score (Table 6, 200 μg/ml): 1 (6-25% toxicity=1)
- Tox. O.D. (Table 6, 400 μg/ml): 1.146
- Toxicity Percent (Table 6, 400 μg/ml): 30.45%
- Toxicity Score (Table 6, 400 μg/ml): 2 (26-50% toxicity=2)
- Tox. O.D. (Table 6, 800 μg/ml): .890
- Toxicity Percent (Table 6, 800 μg/ml): 45.96%
- Toxicity Score (Table 6, 800 μg/ml): 2 (26-50% toxicity=2)
- toxicity to cells (in vitro, summary statement): little toxicity to cells
